Where two headings read alike, the source gives them in different places.
What was measured:
HTT = assay: HiBiT protein abundance assay, HTT HiBiT K562 cell line; type: cell-based, human; conditions: 24 hours, top dose 10 μM
Method in brief: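 K562 knock-in lines with endogenous HiBiT-tagged target, 10,000 cells/well in IMDM + FBS, treated 24 h at 37° C with 10-point 3-fold dilutions (top 10 μM final; DMSO ≤0.25%). Lytic Nano-Glo HiBiT luminescence normalized to untagged K562 baseline and DMSO controls; IC50 = concentration giving 50% abundance via four-parameter fit.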

Target C = assay: RT-qPCR splicing assay panel, Target C canonical junction (CJ) mRNA; type: cell-based, human; conditions: Homo sapiens
Method in brief: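 A673 cells (DMEM/10% FBS) or K562 cells (IMDM/10% FBS) were treated 24 h at 37° C. with 11-point 3-fold dilutions (top 10 uM, ≤0.25% DMSO). Canonical-junction mRNA was quantified in lysates by RT-qPCR, normalized to GAPDH, GUSB or PPIA.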

[1] = tested on: K562 (human chronic myelogenous leukemia) cells; assay: Cell Titer Glo 2.0 cell viability assay; type: cell-based; conditions: Homo sapiens, K562, 72 h, K562 cells, 72 hours, Cell Titer Glo 2.0; read-out: K562 GI50
[2] = HiBiT K562 cell line, read-out: Effect on protein abundance, HTT (IC50 category)
[3] = Table 5 panel, canonical junction qPCR, compound concentration having 50% response in CJ decrease, read-out: Target C IC50 (decrease in CJ mRNA levels)
[4] = canonical junction qPCR panel, Table 5, read-out: Target C (decrease in CJ mRNA levels, IC50)
[5] = HiBiT lytic detection, modified K562 cells, read-out: Effect on protein abundance, HTT (IC50)

| IC50 (HTT; [2]) | IC50 (Target C; [3]) | GI50 [1] | IC50 (Target C; [4]) | IC50 (HTT; [5]) | SMILES |
| --- | --- | --- | --- | --- | --- |
| 0.1 to 1 µM | 1 to 10 µM | 1 to 10 µM |  |  | Cc1cc(-c2ccc3c(c2)CCN(C2CCNCC2)C3=O)cc2cn(C)nc12 [Compound 219, 6-(2,7-dimethylindazol-5-yl)-2-(piperidin-4-yl)-3,4-dihydroisoquinolin-1-one] |
| 0.1 to 1 µM |  | 0.1 to 1 µM | 1 to 10 µM |  | Cc1c(O)c(-c2ncc3c(=O)n([C@H]4CC[C@@H](N(C)C)CC4)ccc3n2)cc2cn(C)nc12 [Compound 1460, 6-((1s,4s)-4-(dimethylamino)cyclohexyl)-2-(6-hydroxy-2,7-dimethyl-2H-indazol-5-yl)pyrido[4,3-d]pyrimidin-5(6H)-one] |
| 0.1 to 1 µM |  | 0.1 to 1 µM | 0.1 to 1 µM |  | Cn1cc2cc(-c3ncc4c(=O)n([C@H]5CCNC5)ccc4n3)c(O)c(F)c2n1 [Compound 1465] |
| 0.1 to 1 µM |  | < 0.1 µM | 0.1 to 1 µM |  | Cc1c(O)c(-c2ncc3c(=O)n([C@H]4CCN[C@H](C)C4)ccc3n2)cc2cn(C)nc12 [Compound 1461, 2-(6-hydroxy-2,7-dimethyl-indazol-5-yl)-6-[(2R,4S)-2-methyl-4-piperidyl]pyrido[4,3-d]pyrimidin-5-one] |
|  |  | 0.1 to 1 µM | < 0.1 µM | < 0.1 µM | Cc1cn2nc(-c3ccc4c(=O)n([C@@H]5CCN(C)C6(CC6)C5)ncc4n3)cc(C)c2n1 [Compound 1534] |
| 1 to 10 µM | 1 to 10 µM | 1 to 10 µM |  |  | Cc1cn2nc(-c3ccc4c(c3)CCN(C3CCNCC3)C4=O)nc2c(C)n1 [Compound 222, 6-[6,8-dimethyl-[1,2,4]triazolo[1,5-a]pyrazin-2-yl]-2-(piperidin-4-yl)-3,4-dihydroisoquinolin-1-one] |
| 0.1 to 1 µM | > 10 µM | 1 to 10 µM |  |  | Cc1cn2cc(-c3ccc4c(c3)CCN(C3CCNCC3)C4=O)cc(C)c2n1 [Compound 217, 6-[2,8-dimethylimidazo[1,2-a]pyridin-6-yl]-2-(piperidin-4-yl)-3,4-dihydroisoquinolin-1-one] |
| 1 to 10 µM | > 10 µM | 1 to 10 µM |  |  | Cc1cc(-c2ccc3c(=O)n(C4CCNCC4)cnc3c2F)cc2cn(C)nc12 [Compound 234] |
|  |  | 0.1 to 1 µM | 0.1 to 1 µM | 0.1 to 1 µM | Cn1cc2cc(-c3ncc4c(=O)n([C@@H]5CCNC5)ccc4n3)c(O)c(F)c2n1 [Compound 1466] |
|  |  | 0.1 to 1 µM | 0.1 to 1 µM | 0.1 to 1 µM | Cc1cn2nc(-c3ccc4c(=O)n([C@H]5CCN(C)[C@@H](C)C5)ncc4n3)cc(C)c2n1 [Compound 1528, 2-(2,8-dimethylimidazo[1,2-b]pyridazin-6-yl)-6-(1,2-dimethyl-4-piperidyl)pyrido[2,3-d]pyridazin-5-one] |
|  |  | < 0.1 µM | 1 to 10 µM | 0.1 to 1 µM | CNC12CCC(n3ccc4nc(-c5cc6cn(C)nc6c(C)c5O)ncc4c3=O)(CC1)C2 [Compound 1479] |
|  |  | 1 to 10 µM | 1 to 10 µM | > 10 µM | Cc1cc(-c2ccc3c(=O)[nH]c(N4CCN(C)CC4)nc3c2)cc2cn(C)nc12 [Compound 2212] |
|  |  | 0.1 to 1 µM | 0.1 to 1 µM | < 0.1 µM | Cc1cn2nc(-c3ccc4c(=O)n(C5CCN(CC6CC6)C6(CC6)C5)ncc4n3)cc(C)c2n1 (stereo not drawn) [Compound 1543, 6-[4-(cyclopropylmethyl)-4-azaspiro[2.5]octan-7-yl]-2-(2,8-dimethylimidazo[1,2-b]pyridazin-6-yl)pyrido[2,3-d]pyridazin-5-one] |
| 0.1 to 1 µM | 0.1 to 1 µM | 0.1 to 1 µM |  |  | Cc1cn2cc(-c3ccc4c(=O)n(C5CCNCC5)cnc4c3)cc(F)c2n1 [Compound 205] |
| 1 to 10 µM | > 10 µM | 1 to 10 µM |  |  | Cc1cn2cc(-c3ccc4c(=O)n(C5CCN(C)CC5)cnc4c3F)cc(F)c2n1 [Compound 227] |
|  |  | 0.1 to 1 µM | 0.1 to 1 µM | < 0.1 µM | Cc1c(O)c(-c2ncc3c(=O)n([C@H]4CCNC5(CC5)C4)ccc3n2)cc2cn(C)nc12 [Compound 1512] |
| 0.1 to 1 µM | 0.1 to 1 µM | 0.1 to 1 µM |  |  | Cc1cn2cc(-n3cnc4cc(N5CCNCC5)ccc4c3=O)cc(F)c2n1 [Compound 228] |

| IC50 (HTT; [2]) | IC50 (Target C; [3]) | GI50 [1] | IC50 (Target C; [4]) | IC50 (HTT; [5]) | SMILES |
| --- | --- | --- | --- | --- | --- |
| < 0.1 µM | 0.1 to 1 µM | 0.1 to 1 µM |  |  | Cc1cn2nc(-c3cc(F)c4c(=O)n(C5CCN(C)CC5)cnc4c3)cc(C)c2n1 [Compound 242] |
|  |  | > 10 µM | > 10 µM | > 10 µM | Cc1cc(-c2ccc3ncn(C4CCN(C)CC4)c(=O)c3c2)cc2cn(C)nc12 [Compound 2170] |
| 0.1 to 1 µM |  | < 0.1 µM | 1 to 10 µM |  | Cc1c(O)c(-c2ccc3c(=O)n([C@H]4C[C@@H](C)N[C@@H](C)C4)ccc3n2)cc2cn(C)nc12 [Compound 1464, 6-[(2S,6R)-2,6-dimethyl-4-piperidyl]-2-(6-hydroxy-2,7-dimethyl-indazol-5-yl)-1,6-naphthyridin-5-one] |
|  |  | > 10 µM | > 10 µM | > 10 µM | Cc1cn2cc(-n3cnc4ccc(N5CCNCC5)cc4c3=O)cc(F)c2n1 [Compound 2195] |
| 1 to 10 µM | 1 to 10 µM | 1 to 10 µM |  |  | Cc1cn2cc(-c3ccc4c(=O)n(C5CCN(C)CC5)cnc4c3)cc(F)c2n1 [Compound 207] |
|  |  | 1 to 10 µM | 1 to 10 µM | 0.1 to 1 µM | Cc1cn2nc(-c3ccc4c(=O)n(C5CCN(CCF)C6(CC6)C5)ncc4n3)cc(C)c2n1 (stereo not drawn) [Compound 1542, 2-(2,8-dimethylimidazo[1,2-b]pyridazin-6-yl)-6-[4-(2-fluoroethyl)-4-azaspiro[2.5]octan-7-1]pyrido[2,3-d]pyridazin-5-one] |
| 1 to 10 µM | > 10 µM | 1 to 10 µM |  |  | Cc1nc2c(F)cc(-c3ccc4c(c3)CCN(C3CCNCC3)C4=O)cc2s1 [Compound 226] |
|  |  | > 10 µM | > 10 µM | > 10 µM | CN1CCC(Nc2ccc3ncn(-c4ccc5nn(C)cc5c4)c(=O)c3c2)CC1 [Compound 2171] |
| 0.1 to 1 µM |  | 0.1 to 1 µM | 1 to 10 µM |  | Cc1c(O)c(-c2ccc3c(=O)n([C@@H]4C[C@@H](C)N[C@@H](C)C4)ccc3n2)cc2cn(C)nc12 [Compound 1463, 6-[(2S,6R)-2,6-dimethyl-4-piperidyl]-2-(6-hydroxy-2,7-dimethyl-indazol-5-yl)-1,6-naphthyridin-5-one] |
| 0.1 to 1 µM |  | 0.1 to 1 µM | 0.1 to 1 µM |  | Cc1cn2nc(-c3ccc4c(=O)n(C5C[C@@H](C)N[C@H](C)C5)ncc4n3)cc(C)c2n1 (stereo in doubt) [Compound 1537, 2-(2,8-dimethylimidazo[1,2-b]pyridazin-6-yl)-6-[(2R,6R)-2,6-dimethyl-4-piperidyl]pyrido[2,3-d]pyridazin-5-one] |
|  |  | 0.1 to 1 µM | 0.1 to 1 µM | < 0.1 µM | Cc1cn2nc(-c3ccc4c(=O)n([C@@H]5CCNC6(CCC6)C5)ncc4n3)cc(C)c2n1 [Compound 1545, 6-[(8R)-5-azaspiro[3.5]nonan-8-yl]-2-(2,8-dimethylimidazo[1,2-b]pyridazin-6-yl)pyrido[2,3-d]pyridazin-5-one] |
| > 10 µM | > 10 µM | > 10 µM |  |  | Cc1cn2cc(-c3ccc4c(c3)CCN(C3CCNCC3)C4=O)ncc2n1 [Compound 224] |
| 0.1 to 1 µM | 1 to 10 µM | 0.1 to 1 µM |  |  | Cc1cn2cc(-c3cc(F)c4c(=O)n(C5CCN(C)CC5)cnc4c3)cc(F)c2n1 [Compound 231, 5-fluoro-7-{8-fluoro-2-methylimidazo[1,2-a]pyridin-6-yl}-3-(1-methylpiperidin-4-yl)quinazolin-4-one] |
| 0.1 to 1 µM |  | 0.1 to 1 µM | 0.1 to 1 µM |  | Cc1cn2nc(-c3ccc4c(=O)n([C@H]5CC(C)N[C@@H](C)C5)ncc4n3)cc(C)c2n1 (stereo in doubt) [Compound 1538, 2-(2,8-dimethylimidazo[1,2-b]pyridazin-6-yl)-6-[(2S,6S)-2,6-dimethyl-4-piperidyl]pyrido[2,3-d]pyridazin-5-one] |
| > 10 µM | > 10 µM | 1 to 10 µM |  |  | Cc1cn2cc(-c3ccc4c(c3)CCN(C3CCNCC3)C4=O)nc2c(C)n1 [Compound 221, 6-[6,8-dimethylimidazo[1,2-a]pyrazin-2-yl]-2-(piperidin-4-yl)-3,4-dihydroisoquinolin-1-one] |
|  |  | 0.1 to 1 µM | < 0.1 µM | < 0.1 µM | CCN1CC[C@@H](n2ncc3nc(-c4cc(C)c5nc(C)cn5n4)ccc3c2=O)CC12CC2 [Compound 1530] |
| 0.1 to 1 µM |  | < 0.1 µM | 0.1 to 1 µM |  | Cc1c(O)c(-c2ncc3c(=O)n([C@H]4CC[C@H](N(C)C)CC4)ccc3n2)cc2cn(C)nc12 [Compound 1459, 6-((1r,4r)-4-(dimethylamino)cyclohexyl)-2-(6-hydroxy-2,7-dimethyl-2H-indazol-5-yl)pyrido[4,3-d]pyrimidin-5(6H)-one] |

| SMILES | IC50 (HTT; [2]) | IC50 (Target C; [3]) | GI50 [1] | IC50 (Target C; [4]) | IC50 (HTT; [5]) |
| --- | --- | --- | --- | --- | --- |
| CN(c1ccc2ncn(-c3cc(F)c4nn(C)cc4c3)c(=O)c2c1)C1CCNCC1 [Compound 2198] |  |  | > 10 µM | > 10 µM | > 10 µM |
| Cc1cn2cc(-n3cnc4ccc(N(C)C5CCNCC5)cc4c3=O)cc(F)c2n1 [Compound 2200] |  |  | > 10 µM | > 10 µM | > 10 µM |

Source: US20250332173A1, “COMPOUNDS AND METHODS FOR MODULATING NUCLEIC ACID SPLICING” (REMIX THERAPEUTICS INC., priority 2021, published 2025)
